Experimental data reported in ChEMBL document CHEMBL1201862, “PubChem BioAssay data set” (2004).
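Where inhibition never reached the appropriate level, the endpoint shown equals the highest concentration tested. Otherwise, values were interpolated linearly from a five-concentration, 48-hour dose response in 96-well plates. At the GI50, growth is halved.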 Active and inactive are the calls of the source. No stated cut-off is given here; in the data, active = GI50 up to about 1.1 µM and inactive = higher.

Legend:
Experiment in all cases: NCI-60 cell line screen, 48 h
UO-31 = tested on: UO-31
IGROV-1 = tested on: IGROV-1
786-0 = tested on: 786-0
SN12C = tested on: SN12C
DU-145 = tested on: DU-145
EKVX = tested on: EKVX
HCT-116 = tested on: HCT-116
NCI-H226 = tested on: NCI-H226
Malme-3M = tested on: Malme-3M
RXF 393 = tested on: RXF 393
OVCAR-4 = tested on: OVCAR-4
A549 = tested on: A549
NCI-H23 = tested on: NCI-H23
SK-OV-3 = tested on: SK-OV-3
HL-60 = tested on: HL-60
MDA-N = tested on: MDA-N
MOLT-4 = tested on: MOLT-4
OVCAR-5 = tested on: OVCAR-5
NCI-H522 = tested on: NCI-H522
M14 = tested on: M14

Measured: GI50

N#Cc1ccc(OC(=O)c2ccc(NC(=N)N)cc2)cc1.c1ccncc1
inactive: UO-31 > 100 µM | IGROV-1 > 100 µM | 786-0 66.1 µM | SN12C 63.2 µM | DU-145 > 100 µM | EKVX > 100 µM | HCT-116 59.3 µM | NCI-H226 50 µM | Malme-3M > 100 µM | RXF 393 > 100 µM | OVCAR-4 > 100 µM | A549 > 100 µM | NCI-H23 > 100 µM | SK-OV-3 > 100 µM | HL-60 60.1 µM | MDA-N 64.3 µM | MOLT-4 38.5 µM | OVCAR-5 > 100 µM | NCI-H522 30 µM | M14 > 100 µM

CCOC(=O)c1ccc(C(=O)C(C(C)=O)C(=O)OC(C)(C)C)n1C (stereo not given)
inactive: UO-31 > 100 µM | IGROV-1 > 100 µM | 786-0 > 100 µM | SN12C > 100 µM | DU-145 > 100 µM | EKVX > 100 µM | HCT-116 > 100 µM | NCI-H226 > 100 µM | Malme-3M > 100 µM | RXF 393 > 100 µM | OVCAR-4 > 100 µM | A549 > 100 µM | NCI-H23 > 100 µM | SK-OV-3 > 100 µM | HL-60 67.9 µM | MDA-N > 100 µM | MOLT-4 67.5 µM | OVCAR-5 > 100 µM | NCI-H522 > 100 µM | M14 > 100 µM

O=C1Nc2ccccc2/C1=N/NC(=S)Nc1ccc(Cl)cc1
inactive: UO-31 38.8 µM | IGROV-1 26.6 µM | 786-0 22.3 µM | SN12C 29.3 µM | DU-145 > 100 µM | EKVX 36.2 µM | HCT-116 24.9 µM | NCI-H226 22.2 µM | Malme-3M 9.62 µM | RXF 393 39.4 µM | OVCAR-4 30.4 µM | A549 34.6 µM | NCI-H23 57.4 µM | SK-OV-3 38.5 µM | HL-60 39 µM | MDA-N 63.7 µM | MOLT-4 26.1 µM | OVCAR-5 64.6 µM | NCI-H522 57 µM | M14 15 µM

O=C1NC(N2CCCCC2)=N/C1=C\c1ccccc1
inactive: UO-31 > 100 µM | IGROV-1 > 100 µM | 786-0 > 100 µM | SN12C > 100 µM | DU-145 > 100 µM | EKVX > 100 µM | HCT-116 > 100 µM | NCI-H226 > 100 µM | Malme-3M > 100 µM | RXF 393 > 100 µM | OVCAR-4 > 100 µM | A549 > 100 µM | NCI-H23 > 100 µM | SK-OV-3 > 100 µM | HL-60 > 100 µM | MDA-N > 100 µM | MOLT-4 > 100 µM | OVCAR-5 > 100 µM | NCI-H522 > 100 µM | M14 > 100 µM

COc1ccc(C(=O)/C=C/c2ccncc2)cc1OC
inactive: UO-31 14.9 µM | IGROV-1 12.9 µM | 786-0 11.4 µM | SN12C 15.8 µM | DU-145 17.7 µM | EKVX 16.7 µM | HCT-116 6.44 µM | NCI-H226 15.5 µM | Malme-3M 18.3 µM | RXF 393 12.6 µM | OVCAR-4 11 µM | A549 15.7 µM | NCI-H23 10.7 µM | SK-OV-3 17.2 µM | HL-60 2.04 µM | MDA-N 13.1 µM | MOLT-4 8.32 µM | OVCAR-5 14.3 µM | NCI-H522 7.73 µM | M14 14.7 µM
